Where two headings read alike, the source gives them in different places.
Columns and labels:
corn rust = assay: Protectant activity in vivo (whole plant) against corn rust
Summary of the method: (§1)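 Compound stock in organic solvent (≤5% v/v) diluted in water with 0.1% Tween-80 and sprayed onto whole host plants. Fungal inoculation 24 h later; humidity chamber then greenhouse as the pathogen requires. Activity rated visually, usually after 7 days.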

rice blast = assay: microbe, parasite or virus in culture; type: cell-based; conditions: for the inhibition rate against rice blast (%) 0.03 mg/L: Table 21, 0.03 mg/L; for the inhibition rate against rice blast (%) 0.1 mg/L: Table 21, 0.1 mg/L; for the inhibition rate against rice blast (%) 0.3 mg/L: Table 21, 0.3 mg/L; for inhibition at 0.03 µg/mL: read-out: the inhibition rate against rice blast (%) 0.03 mg/L; for inhibition at 0.1 µg/mL: read-out: the inhibition rate against rice blast (%) 0.1 mg/L
cucumber gray mold = assay: Activity in vitro (96-well, High Through Put): inhibition rate against cucumber gray mold; type: cell-based
Method: The method is as followed: High Through Put is used in the test. The compound is dissolved in a proper solvent to become a testing solution whose concentration is designed. The solvent is selected from acetone, methanol, DMF and so on according to their dissolving capability to the sample. In a no animalcule condition, the testing solution and pathogens suspension are added into the cells of 96 cells culture board, which then should be placed in the constant temperature box. 24 hours later, pathogen germination or growth can be investigated by eyeballing, and the activity in vitro of the compound is evaluated based on germination or growth of control treatment.

cucumber downy mildew = assay: Protectant activity in vivo (whole plant) against cucumber downy mildew; conditions: for pest or weed control at 12.5 µg/mL / pest or weed control at 25 µg/mL / pest or weed control at 50 µg/mL / pest or weed control at 100 µg/mL: Cucumis sativus, 168 h
Summary of the method: as §1

[1] = Pyricularia oryzae, read-out: inhibition rate against rice blast
[2] = Pyricularia oryzae, read-out: the inhibition rate against rice blast (%) 0.3 mg/L
[3] = 25 mg/L, read-out: the protectant activity (%) against cucumber downy mildew
[4] = 50 mg/L, read-out: the protectant activity (%) against cucumber downy mildew
[5] = 100 mg/L, read-out: the protectant activity (%) against cucumber downy mildew
[6] = dose 25 mg/L, read-out: protectant activity against cucumber downy mildew in vivo
[7] = dose 50 mg/L, read-out: protectant activity against cucumber downy mildew in vivo
[8] = 0.9 mg/L, read-out: the inhibition rate against cucumber gray mold (%)
[9] = 2.8 mg/L, read-out: the inhibition rate against cucumber gray mold (%)
[10] = 8.3 mg/L, read-out: the inhibition rate against cucumber gray mold (%)
[11] = in vitro, dose 2.8 mg/L, read-out: inhibition rate against cucumber gray mold

Row | SMILES | protectant activity against corn rust in vivo (corn rust; dose 400 mg/L) | the inhibition rate against rice blast (%) 0.03 mg/L (rice blast) | the inhibition rate against rice blast (%) 0.1 mg/L (rice blast) | the inhibition rate against rice blast (%) 0.3 mg/L (rice blast) | the inhibition rate against cucumber gray mold (%) (cucumber gray mold; 0.3 mg/L) | the inhibition rate against cucumber gray mold (%) (cucumber gray mold; 0.9 mg/L) | the inhibition rate against cucumber gray mold (%) (cucumber gray mold; 2.8 mg/L) | the inhibition rate against cucumber gray mold (%) (cucumber gray mold; 8.3 mg/L) | the protectant activity (%) against corn rust (corn rust; 6.25 mg/L) | the protectant activity (%) against corn rust (corn rust; 25 mg/L) | the protectant activity (%) against corn rust (corn rust; 100 mg/L) | the protectant activity (%) against corn rust (corn rust; 400 mg/L) | the protectant activity (%) against cucumber downy mildew (cucumber downy mildew; 25 mg/L) | the protectant activity (%) against cucumber downy mildew (cucumber downy mildew; 50 mg/L) | the protectant activity (%) against cucumber downy mildew (cucumber downy mildew; 100 mg/L) | protectant activity against cucumber downy mildew in vivo (cucumber downy mildew; dose 50 mg/L) | protectant activity against cucumber downy mildew in vivo (cucumber downy mildew; dose 100 mg/L) | protectant activity against cucumber downy mildew in vivo (cucumber downy mildew; dose 400 mg/L) | also measured
1 | N#Cc1c(Cl)c(Cl)c(Nc2c(F)cc([N+](=O)[O-])cc2F)c(Cl)c1C#N [Compound A-43] | 100% | 100% | 100% | 100% | 100% | 100% | 100% | 100% | – | – | – | – | – | – | – | – | – | – | –
2 | N#Cc1c(Cl)c(Cl)c(Nc2c(Cl)cncc2Cl)c(Cl)c1C#N [Compound A-87] | – | 100% | 100% | 100% | – | – | – | – | 50% | 80% | 100% | 100% | – | – | – | – | – | – | protectant activity against corn rust in vivo (corn rust; dose 100 mg/L): 100%; inhibition rate against cucumber gray mold (cucumber gray mold; in vitro, dose 8.3 mg/L): 80%
3 | N#Cc1c(Cl)c(Cl)c(Nc2ccc([N+](=O)[O-])cc2Cl)c(C#N)c1Cl [Compound B-35] | – | 50% | 80% | 100% | 100% | 100% | 100% | 100% | – | – | – | – | 98% | 98% | 100% | 98% | 100% | 100% | the protectant activity (%) against cucumber downy mildew (cucumber downy mildew; 12.5 mg/L): 98%; protectant activity against cucumber downy mildew in vivo (cucumber downy mildew; dose 12.5 mg/L): 98%
4 | N#Cc1c(Cl)c(Cl)c(Nc2c(F)cc([N+](=O)[O-])cc2Cl)c(C#N)c1Cl [Compound B-53] | – | 100% | 100% | 100% | 0% | 100% | 100% | 100% | 30% | 50% | 80% | 100% | – | – | – | 98% | 100% | 100% | –
5 | N#Cc1c(Cl)c(Cl)c(Nc2c(Cl)cc([N+](=O)[O-])cc2Cl)c(C#N)c1Cl [Compound B-54] | 100% | 0% | 0% | 100% | 100% | 100% | 100% | 100% | 65% | 80% | 90% | 100% | 75% | 100% | 100% | 100% | 100% | 100% | inhibition rate against rice blast (rice blast; in vitro, dose 0.3 mg/L): 80%; inhibition rate against cucumber gray mold (cucumber gray mold; in vitro, dose 0.3 mg/L): 80%
6 | Cc1cc([N+](=O)[O-])cc(Cl)c1Nc1c(Cl)c(Cl)c(C#N)c(Cl)c1C#N [Compound B-58] | 100% | 0% | 50% | 100% | 80% | 100% | 100% | 100% | – | – | – | – | 98% | 100% | 100% | 100% | 100% | 100% | the protectant activity (%) against cucumber downy mildew (cucumber downy mildew; 12.5 mg/L): 98%; protectant activity against cucumber downy mildew in vivo (cucumber downy mildew; dose 12.5 mg/L): 98%; inhibition rate against cucumber gray mold (cucumber gray mold; in vitro, dose 0.3 mg/L): 80%
7 | COc1c(Cl)c(Nc2c(Cl)cc([N+](=O)[O-])cc2Cl)c(C#N)c(Cl)c1C#N [Compound B-74] | 100% | 0% | 50% | 100% | – | 80% | 100% | 100% | 40% | 70% | 95% | 100% | 80% | 98% | 100% | 98% | 100% | 100% | –
8 | N#Cc1c(Cl)c(Cl)c(C#N)c(Nc2c(F)cc([N+](=O)[O-])cc2Cl)c1Cl [Compound C-46] | 80% | 100% | 100% | 100% | 100% | 100% | 100% | 100% | – | – | – | – | – | – | – | – | – | – | –
9 | COc1ccc(Nc2c(F)c(F)c(C#N)c(F)c2C#N)cc1 [KC10] | – | – | – | – | – | – | – | – | – | – | – | – | – | – | – | – | – | – | inhibition at 0.3 µg/mL (rice blast; [1]): 0%; inhibition at 0.9 µg/mL (rice blast; [1]): 50%; inhibition at 0.03 µg/mL (rice blast; Pyricularia oryzae): 0%; inhibition at 0.1 µg/mL (rice blast; Pyricularia oryzae): 0%; inhibition at 0.3 µg/mL (rice blast; [2]): 0%; pest or weed control at 12.5 µg/mL (cucumber downy mildew; 12.5 mg/L): 0%; pest or weed control at 25 µg/mL (cucumber downy mildew; [3]): 0%; pest or weed control at 50 µg/mL (cucumber downy mildew; [4]): 10%; pest or weed control at 100 µg/mL (cucumber downy mildew; [5]): 20%; pest or weed control at 25 µg/mL (cucumber downy mildew; [6]): 0%; pest or weed control at 50 µg/mL (cucumber downy mildew; [7]): 10%; inhibition at 0.3 µg/mL (cucumber gray mold; 0.3 mg/L): 0%; inhibition at 0.9 µg/mL (cucumber gray mold; [8]): 0%; inhibition at 2.8 µg/mL (cucumber gray mold; [9]): 0%; inhibition at 8.3 µg/mL (cucumber gray mold; [10]): 80%; inhibition at 2.8 µg/mL (cucumber gray mold; [11]): 0%
10 | N#Cc1c(F)c(F)c(Nc2ccc([N+](=O)[O-])cc2)c(C#N)c1F [KC11] | – | – | – | – | – | – | – | – | – | – | – | – | – | – | – | – | – | – | inhibition at 0.9 µg/mL (rice blast; [1]): 0%; inhibition at 0.03 µg/mL (rice blast; Pyricularia oryzae): 0%; inhibition at 0.1 µg/mL (rice blast; Pyricularia oryzae): 0%; inhibition at 0.3 µg/mL (rice blast; [2]): 0%; pest or weed control at 12.5 µg/mL (cucumber downy mildew; 12.5 mg/L): 0%; pest or weed control at 25 µg/mL (cucumber downy mildew; [3]): 0%; pest or weed control at 50 µg/mL (cucumber downy mildew; [4]): 0%; pest or weed control at 100 µg/mL (cucumber downy mildew; [5]): 0%; pest or weed control at 25 µg/mL (cucumber downy mildew; [6]): 0%; pest or weed control at 50 µg/mL (cucumber downy mildew; [7]): 0%; inhibition at 0.3 µg/mL (cucumber gray mold; 0.3 mg/L): 0%; inhibition at 0.9 µg/mL (cucumber gray mold; [8]): 0%; inhibition at 2.8 µg/mL (cucumber gray mold; [9]): 0%; inhibition at 8.3 µg/mL (cucumber gray mold; [10]): 50%; inhibition at 2.8 µg/mL (cucumber gray mold; [11]): 0%
11 | CCOc1ccccc1Nc1c(F)c(F)c(C#N)c(C#N)c1F [KC26] | – | – | – | – | – | – | – | – | – | – | – | – | – | – | – | – | – | – | pest or weed control at 6.25 µg/mL (corn rust; Zea mays, 168 h, 6.25 mg/L): 0%; pest or weed control at 25 µg/mL (corn rust; Zea mays, 168 h, 25 mg/L): 0%; pest or weed control at 100 µg/mL (corn rust; Zea mays, 168 h, 100 mg/L): 0%; pest or weed control at 400 µg/mL (corn rust; Zea mays, 168 h, 400 mg/L, read-out: the protectant activity (%) against corn rust): 0%; pest or weed control at 400 µg/mL (corn rust; Zea mays, 168 h, dose 400 mg/L, read-out: protectant activity against corn rust in vivo): 0%; inhibition at 25 µg/mL (rice blast; [1]): 0%; inhibition at 0.03 µg/mL (rice blast; Pyricularia oryzae): 0%; inhibition at 0.1 µg/mL (rice blast; Pyricularia oryzae): 0%; inhibition at 0.3 µg/mL (rice blast; [2]): 0%; inhibition at 0.3 µg/mL (cucumber gray mold; 0.3 mg/L): 0%; inhibition at 0.9 µg/mL (cucumber gray mold; [8]): 0%; inhibition at 2.8 µg/mL (cucumber gray mold; [9]): 0%; inhibition at 8.3 µg/mL (cucumber gray mold; [10]): 0%; inhibition at 25 µg/mL (cucumber gray mold; in vitro, dose 25 mg/L): 0%
